Reference: US20200216800A1, “CELL CULTURE MEDIUM FOR PRODUCING TARGET MATERIAL AT HIGH EFFICIENCY BY USING MAMMALIAN CELLS, CELL CULTURING METHOD USING SAME, AND METHOD OF PRODUCING TARGET MATERIAL” (priority 2015, published 2020)
Marks after values point to notes of the source that are not given here.

Experiments:
Type in all cases: cell-based, Chinese hamster
rCHO-2 cells = experiment: Suspension culture of rCHO-2 cells: antibody level by sandwich ELISA; details: HY-CDM, Zn around 60-75 μM
Excerpt: (§1) Two recombinant CHO DG44 cell lines (hereinafter referred to as “rCHo-1” and “rCHO-2”) were used for monoclonal antibody (mAB) production. Each cell line was passaged 8 times or more and suspension adapted in a protein-free medium (HY-PFM, in-house) or chemically defined medium (HY-CDM, in-house). The suspension-adapted cell line was used to evaluate how the concentrations of trace elements, the selection of an effective trace element, and the concentration of ZnSO4.7H2O (Zn) affected the growth of cells and the production of antibody in commercial chemically defined media.
The cell line was inoculated at a density of 4×10^5 cells/ml and cultured in an Erlenmeyer flask with a 30 ml/125 ml working volume on an orbital shaker at 120 rpm under humidified conditions at 37° C. and 5% CO2. […] The subcultured cells were evaluated.
4, 6, 8, 10, and 12 days after cells were inoculated under the experimental conditions, cell culture fluids were sampled, centrifuged at 1,000 rpm (×162 g) for 5 min, and stored at −20° C. before antibody analysis. Antibody levels were measured by sandwich enzyme linked immunosorbent assay (ELISA). […] For antibody level analysis, absorbance values were measured at a wavelength of 450 nm using a kinetic microplate reader (Molecular Devices, Sunnyvale, Calif., USA).

rCHO-1 cells [1] = experiment: Suspension culture of rCHO-1 cells: antibody level by sandwich ELISA
Excerpt: as §1
(§2) The cell line was inoculated at a density of 4×10^5 cells/ml and cultured in an Erlenmeyer flask with a 30 ml/125 ml working volume on an orbital shaker at 120 rpm under humidified conditions at 37° C. and 5% CO2. Before inoculation, the cells were centrifuged at 1,000 rpm (×162 g) for 5 min, the supernatant was discarded, and the remaining cells were dispersed into single cells in the heated medium. The cells were passaged three times to minimize the influence of the remaining medium under the experimental conditions. The subcultured cells were evaluated.
4, 6, 8, 10, and 12 days after cells were inoculated under the experimental conditions, cell culture fluids were sampled, centrifuged at 1,000 rpm (×162 g) for 5 min, and stored at −20° C. before antibody analysis. Antibody levels were measured by sandwich enzyme linked immunosorbent assay (ELISA). For the detection of mAB by ELISA, anti-human IgG (Fab specific) (I5260, Sigma, St. Louis, Mo., USA) was used as a primary antibody and human IgG (Fc specific)-horseradish peroxidase (A0170, Sigma) was used as a chromogenic antibody. 1% (w/v) bovine serum albumin/phosphate buffered saline was used for blocking, 3,3′,5,5′-tetramethylbenzidine (TMB) solution (KPL, Gaithersburg, Md., USA) was used as a chromogenic reagent. The chromogenic reaction was stopped with 2 M H2SO4. For antibody level analysis, absorbance values were measured at a wavelength of 450 nm using a kinetic microplate reader (Molecular Devices, Sunnyvale, Calif., USA).

rCHO-1 cells [2] = experiment: Suspension culture of rCHO-1 cells: density of live cells, growth and longevity (hemocytometer, trypan blue dye exclusion)
Excerpt: as §1, §2
The density of live cells was analyzed using a hemocytometer (Neubauer improved bright-line, Marienfeld, Germany), an inverted microscope (CK30, Olympus, Japan), and trypan blue dye exclusion.

[3] = HY-CDM, Zn around 60-75 μM, rCHO-1
[4] = HY-PFM, trace element individually added in 20-fold amount of control
[5] = commercial CDM-1, 2 and 3, Zn ions enhanced to 60 μM

O.O.O.O.O.O.O.O=S(=O)([O-])[O-].[Zn+2] [Zn, ZnSO4.7H2O]
antibody production compared to control group (rCHO-2 cells): 1.3 fold | antibody production rate (maximum) (rCHO-2 cells): 210 mg/L | qmAB at the initial stage of cell culture (0-4 days) (rCHO-1 cells [1]; HY-CDM, Zn 60 μM): 5.1 pcd | antibody production compared to control group (rCHO-1 cells [1]; [3]): 6.6 fold | antibody production rate (maximum) (rCHO-1 cells [1]; [3]): 440 mg/L | increase in antibody production compared to control group (rCHO-1 cells [1]; HY-PFM and HY-CDM, Zn 60 μM): ≥ 2 fold | qmAB at the initial stage (0-4 days), times those in control group (rCHO-1 cells [1]; HY-PFM and HY-CDM, Zn 60 μM vs 3 μM): at least 1.7 times | qmAB at the initial stage of cell culture (0-4 days) (rCHO-1 cells [1]; HY-PFM, Zn 60 μM): 9.4 pcd | antibody production (maximum) (rCHO-1 cells [1]; HY-PFM, Zn 45-60 μM): 360 mg/L | antibody production relative to control group (rCHO-1 cells [1]; HY-PFM, Zn 45-60 μM vs control (3 μM)): twice | maximum antibody level (rCHO-1 cells [1]; [4]): 260 mg/L | qmAB (ped, 0-4 days) (rCHO-1 cells [1]; Zn 3 μM (control level), CDM): 3.07 ± 0.19 ped | qmAB (ped, 4-8 days) (rCHO-1 cells [1]; Zn 3 μM (control level), CDM, calculated from the results obtained 4-6 days after cell culture): 1.47 ± 0.10^a ped | qmAB (ped, 0-4 days) (rCHO-1 cells [1]; Zn 3 μM (control level), PFM): 4.99 ± 0.13 ped | qmAB (ped, 4-8 days) (rCHO-1 cells [1]; Zn 3 μM (control level), PFM): 1.75 ± 0.01 ped | qmAB (ped, 0-4 days) (rCHO-1 cells [1]; Zn 60 μM, CDM): 5.06 ± 0.07 ped | qmAB (ped, 4-8 days) (rCHO-1 cells [1]; Zn 60 μM, CDM): 3.30 ± 0.01 ped | qmAB (ped, 0-4 days) (rCHO-1 cells [1]; Zn 60 μM, PFM): 9.35 ± 0.11 ped | qmAB (ped, 4-8 days) (rCHO-1 cells [1]; Zn 60 μM, PFM): 3.74 ± 0.04 ped | effectiveness in producing antibody by batch culture (rCHO-1 cells [1]; Zn ion concentration enhanced to 30-90 μM, recombinant CHO cell lines): very effective in producing antibody by batch culture | specific production rates of antibody (rCHO-1 cells [1]; Zn ions enhanced to 30 μM, protein-free and chemically defined media, recombinant CHO cell lines): improved | qmAB at the late stage (4-8 days), times higher than control group (rCHO-1 cells [1]; both media (HY-PFM, HY-CDM), Zn 60 μM vs 3 μM): 2.1 times | antibody productivities, times higher than control group (rCHO-1 cells [1]; [5]): 1.2-1.5 times | cell growth and antibody production (rCHO-1 cells [1]; commercial CDM-4 (CD OptiCHO), Zn ions enhanced to 60 μM): only continuous cell growth and antibody production was observed | cell longevity (cell viability of 80%), times higher than control group (rCHO-1 cells [2]; HY-CDM, Zn 60 μM): 1.8 times | live cell densities (rCHO-1 cells [2]; HY-PFM and HY-CDM, Zn 60 μM): 9×10^6 cells/ml | period for which live cell density was maintained during cell culture (rCHO-1 cells [2]; HY-PFM and HY-CDM, Zn 60 μM): at least 9 days | cell longevity (cell viability of 80%), times higher than control group (rCHO-1 cells [2]; HY-PFM, Zn 60 μM): 1.4 times | maximum cell density (rCHO-1 cells [2]; [4]): 1.1×10^7 cells/ml | Cell longevity (day/80% viability) (rCHO-1 cells [2]; Zn 3 μM (control level), CDM): 5.1 ± 0.0 days | μ (rCHO-1 cells [2]; Zn 3 μM (control level), CDM): 1.01 ± 0.04 day⁻¹ | Cell longevity (day/80% viability) (rCHO-1 cells [2]; Zn 3 μM (control level), PFM): 6.2 ± 0.0 days | μ (rCHO-1 cells [2]; Zn 3 μM (control level), PFM): 0.87 ± 0.01 day⁻¹ | Cell longevity (day/80% viability) (rCHO-1 cells [2]; Zn 60 μM, CDM): 9.3 ± 0.4 days | μ (rCHO-1 cells [2]; Zn 60 μM, CDM): 1.00 ± 0.00 day⁻¹ | Cell longevity (day/80% viability) (rCHO-1 cells [2]; Zn 60 μM, PFM): 8.5 ± 0.2 days | μ (rCHO-1 cells [2]; Zn 60 μM, PFM): 0.90 ± 0.02 day⁻¹ | inhibitory effect on cell growth (rCHO-1 cells [2]; Zn ion concentration enhanced to 30-60 μM, recombinant CHO cell lines): no inhibitory effect on cell growth | inhibition of cell growth (rCHO-1 cells [2]; [5]): No inhibition of cell growth was observed
